US7425562B2, “Inhibitors of cruzipain and other cysteine proteases” (Amura Therapeutics Ltd., priority 2001, dated 2008)

What was measured:
Assay type in all cases: biochemical
Cruzipain = target: T1, Cruzipain (Trypanosoma cruzi, UniProt P25779); assay: Trypanosoma cruzi cruzipain peptidase activity assay (Ki); conditions: wild-type cruzipain from Trypanosoma cruzi Dm28 epimastigotes, pH 6.75, 25±1° C
T1 construct: Wild-type cruzipain, derived from Trypanosoma cruzi Dm28 epimastigotes; tissue Dr. Julio Scharfstein (Instituto de Biofisica Carlos Chagas Filho); host or cells: Trypanosoma cruzi Dm28 epimastigotes
Method: (§1) Assay protocols were based on literature precedent (Tablel; Barrett, A. J., Rawlings, N. D. and Woessner, J. F., 1998, Handbook of Proteolytic Enzymes, Academic Press, London and references therein) and modified as required to suit local assay protocols. Enzyme was added as required to initiate the reaction and the activity, as judged by the change in fluorescence upon conversion of substrate to product, was monitored over time. All assays were carried out at 25±1° C.
Wild-type cruzipain, derived from Trypanosoma cruzi Dm28 epimastigotes, was obtained from Dr. Julio Scharfstein (Instituto de Biofisica Carlos Chagas Filho, Universidade Federal do R^10 de Janeiro, R^10 de Janeiro, Brazil). Activity assays were carried out in 100 mM sodium phosphate, pH 6.75 containing 1 mM EDTA and 10 mM Loysteine using 2.5 nM enzyme. Ac-Phe-Arg-AMC (KM^app≈12 μM) and D-Val-Leu-Lys-AMC (KM^app≈4 μM) were used as the substrates. Routinely, Ac-FR-AMC was used at a concentration equivalent to KM^app and D-Val-Leu-Lys-AMC was used at a concentration of 25 μM. The rate of conversion of substrate to product was derived from the slope of the increase in fluorescence monitored continuously over time.
(§2) The apparent inhibition constant (Ki) for each compound was determined on the basis that inhibition was reversible and occurred by a pure-competitive mechanism. The Ki values were calculated, from the dependence of enzyme activity as a function of inhibitor concentration, by direct regression analysis (Prism v 3.02) using Equation 2 (Cornish-Bowden, A., 1995.).
(§3) In situations where the apparent dissociation constant (Ki^app) approached the enzyme concentrations, the Ki^app values were calculated using a quadratic solution in the form described by Equation 3 (Morrison, J. F. Trends Biochem. Sci., 7, 102-105, 1982; Morrison, J. F. Biochim. Biophys. Acta, 185, 269-286, 1969; Stone, S. R. and Hofsteenge, J. Biochemistry, 25, 4622-4628, 1986).

Bovine Cathepsin S = target: T2, Bovine Cathepsin S (Bos taurus, UniProt P25326); assay: Cathepsin peptidase activity assay, bovine cathepsin S (Ki); conditions: boc-Val-Leu-Lys-AMC, pH 6.5, 25±1° C
T2 construct: purchased CN Biosciences
Method: as §1
(§4) Bovine cathepsin S, human cathepsin L, human cathepsin H and human cathepsin B were obtained from CN Biosciences. Recombinant human cathepsin S, human cathepsin K and human cathepsin X were obtained from Dr. Boris Turk (Josef Stefan Institute, Ljubljana, Slovenia). Unless otherwise stated, all peptidase activity assays were carried out in 10 mM bis-tris-propane (BTP), pH 6.5 containing 1 mM EDTA, 5 mM 2-mercaptoethanol and 1 mM CaCl2. Human cathepsin H activity assays were carried out in 10 mM BTP pH 6.5, 142 mM […], 1 mM CaCl2, 1 mM EDTA, 1 mM DTT, 0.035 mM Zwittergent 3-16. Human cathepsin K assays were carried out in 100 mM sodium acetate; pH 5.5 containing 20 mM L-cysteine and 1 mM EDTA (Bossard, M. J., et. al., J. Biol. Chem., 21, 12517-12524, 1996). Human cathepsin X assays were carried out in 100 mM sodium acetate; pH 5.5 containing 20 mM L-cysteine; 0.05% (w/v) Brij 35 and 1 mM EDTA (Santamaria, I., et. al., J. Biol. Chem., 273, 16816-16823, 1998; Klemencic, J, et al., Eur. J. Biochem., 267, 5404-5412, 2000). […] The rate of conversion of substrate to product was derived from the slope of the increase in fluorescence monitored continuously over time.
as §2, §3

Human Cathepsin L = target: T3, Human Cathepsin L (Homo sapiens, UniProt P07711); assay: Cathepsin peptidase activity assay, human cathepsin L (Ki); conditions: Ac-Phe-Arg-AMC, pH 6.5, 25±1° C
T3 construct: purchased CN Biosciences
Method: as §1, §4, §2, §3

Human Cathepsin K = target: T4, Human Cathepsin K (Homo sapiens, UniProt P43235); assay: Cathepsin peptidase activity assay, human cathepsin K (Ki); conditions: pH 5.5, 25±1° C
T4 construct: Dr. Boris Turk (Josef Stefan Institute, Ljubljana, Slovenia)
T4 sequence (P43235 115-329): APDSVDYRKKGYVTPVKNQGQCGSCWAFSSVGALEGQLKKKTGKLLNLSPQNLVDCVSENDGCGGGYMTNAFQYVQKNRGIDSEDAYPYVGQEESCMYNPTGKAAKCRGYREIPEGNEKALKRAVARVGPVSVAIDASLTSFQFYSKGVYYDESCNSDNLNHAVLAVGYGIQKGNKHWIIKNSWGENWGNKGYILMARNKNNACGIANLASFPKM
Method: as §1, §4, §2, §3

T1 sequence (P25779 123-467): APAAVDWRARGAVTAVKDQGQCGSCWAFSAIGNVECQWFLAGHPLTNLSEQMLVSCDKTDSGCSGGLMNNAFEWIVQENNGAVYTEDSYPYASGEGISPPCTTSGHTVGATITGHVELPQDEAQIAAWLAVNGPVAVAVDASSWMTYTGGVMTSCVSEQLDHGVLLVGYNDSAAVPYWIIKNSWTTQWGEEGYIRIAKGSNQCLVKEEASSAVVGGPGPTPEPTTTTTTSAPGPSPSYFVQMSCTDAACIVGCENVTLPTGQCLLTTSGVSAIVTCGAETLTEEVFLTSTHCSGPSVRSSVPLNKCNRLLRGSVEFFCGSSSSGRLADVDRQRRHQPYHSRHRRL
T2 sequence (P25326 115-331): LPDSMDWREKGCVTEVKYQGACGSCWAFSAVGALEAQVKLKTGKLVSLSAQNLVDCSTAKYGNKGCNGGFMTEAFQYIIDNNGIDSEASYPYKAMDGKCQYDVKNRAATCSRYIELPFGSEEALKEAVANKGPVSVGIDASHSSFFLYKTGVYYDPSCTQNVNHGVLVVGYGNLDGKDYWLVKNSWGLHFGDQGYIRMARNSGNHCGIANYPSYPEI
T3 sequence (P07711 114-333): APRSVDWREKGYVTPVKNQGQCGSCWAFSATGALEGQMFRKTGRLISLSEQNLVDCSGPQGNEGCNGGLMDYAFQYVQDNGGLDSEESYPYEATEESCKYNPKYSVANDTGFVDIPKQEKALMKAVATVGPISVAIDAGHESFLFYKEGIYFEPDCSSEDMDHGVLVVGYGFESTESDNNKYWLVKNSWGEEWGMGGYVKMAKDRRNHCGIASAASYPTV

| Compound | Ki (Cruzipain) [µM] | Ki (Bovine Cathepsin S) [µM] | Ki (Human Cathepsin L) [µM] | Ki (Human Cathepsin K) [µM] |
| --- | --- | --- | --- | --- |
| O=C(N[C@@H](Cc1ccc(O)cc1)C(=O)N1CC[C@H]2OCC(=O)[C@H]21)c1cccc2ccccc12 [Example 69, (3aS, 6aR) Naphthalene-1-carboxylic Acid [1S-(4-hydroxybenzyl)-2-oxo-2-(3-oxo-hexahydrofuro[3,2-b]pyrrol-4-yl)ethyl]amide] | > 5 | > 10 | 0.8 | > 100 |
| CC(C)C[C@H](NC(=O)c1ccc(Oc2ccccc2)cc1)C(=O)N1CC[C@H]2OCC(=O)[C@H]21 [Example 10, (3aS, 6aR) N-[3-methyl-1S-(3-oxo-hexahydrofuro[3,2-b]pyrrole-4-carbonyl)butyl]-4-phenoxybenzamide] | > 5 | > 10 | > 25 | 0.1 |
| O=C(N[C@@H](CSCc1ccccc1)C(=O)N1CC[C@H]2OCC(=O)[C@H]21)c1ccoc1 [Example 48, (3aS, 6aR) Furan-3-carboxylic Acid [1R-benzylsulfanylmethyl-2-oxo-2-(3-oxo-hexahydrofuro[3,2-b]pyrrol-4-yl)ethyl]amide] | > 25 | 0.3 | > 100 | > 10 |
| CC(C)(C)c1ccc(C(=O)N[C@@H](Cc2ccc(O)cc2)C(=O)N2CC[C@H]3OCC(=O)[C@H]32)cc1 [Example 3, (3aS, 6aR) 4-tert-Butyl-N-[1S-(4-hydroxybenzyl)-2-oxo-2-(3-oxo-hexahydrofuro[3,2-b]pyrrol-4-yl)ethyl]benzamide] | 0.2 | > 100 | > 35 | > 5 |
